Values of other authors as cited in patent publication US12611671B2, “Methods, systems and kits for in-pen assays” (Bruker Cellular Analysis, Inc., priority 2016, dated 2026).

Target: IgG
Details: (Fc); read-out: Affinity for IgG

Sequence: DCAWHLGELVWCT [CPD 4, Asp Cys Ala Trp His Leu Gly Glu Leu Val Trp Cys Thr]
- Kd: 100 nM
